The source of these data is patent US20250340551A1, “SMALL MOLECULE MODULATORS OF STAT6” (Gilead Sciences, Inc., priority 2024, published 2025).

As usually defined, the Emax is the greatest response seen or fitted, relative to the assay's reference. A word on the EC50: it is the concentration giving half of the maximal effect. Higher therefore signals a need for much substance.

SMILES strings stand for the structures.

For the first assay, the system named is Eotaxin-3 (CCL26) release in human whole blood stimulated with IL-4. As to the kind of experiment: Human whole blood eotaxin-3 assay (IL-4 stimulated, Eotaxin-3 release). The settings on record: Homo sapiens, 48 h. It counts as cell-based. The procedure:
This was a human whole blood assay using recombinant human Interleukin 4 to stimulate the blood and measuring the ability of the test compounds to inhibit eotaxin-3 release. The biological activities of the test compounds have been tested in human whole blood stimulated with IL-4 measuring Eotaxin-3 release. The test compounds were added to 384 well clear flat-bottom plate in a 4-fold serial dilution in triplicates using a liquid handler. Human whole blood stabilized in lithium-heparin tubes was added in a volume of 65 μL per well, resulting in a final DMSO concentration of 0.5%. The plate is incubated for 2 h at 37° C. under 5% CO2/95% air. Subsequently, 5 μL of recombinant human IL-4 (R&D Systems, cat #204-ILB) was added to the wells to a final concentration of 400 pM. The plate was incubated for 48 h at 37° C. under 5% CO2/95% air. The plate was spun down for 10 minutes at 500×g and 20 μL supernatant was harvested and transferred to a 384 well v-bottom plate using a liquid handler and stored at −20° C. until further analysis. 10 μL supernatant was used to measure the level of Eotaxin-3 (CCL26) using Human Eotaxin-3 MSD kit from Mesocsale (Cat #K251UEK-4). The assay was performed according to the manufacture instructions.
The data from the human whole blood eotaxin-3 assay is shown below for Examples 1u2, 1x1, 1af26, and 1af36 (where the effect in % is plotted against the test concentration in M on a log-scale).
The compound `[2H]C([2H])([2H])N(C(=O)c1ccc(C2CCN([C@@H](C)c3cc4c(-c5cnc(N)cc5C#N)ccnc4n3C)CC2)cc1)C([2H])([2H])[2H]` [Example 1af70, (S)-4-(1-(1-(4-(6-amino-4-cyanopyridin-3-yl)-1-methyl-1H-pyrrolo[2,3-b]pyridin-2-yl)ethyl)piperidin-4-yl)-N,N-bis(methyl-d3)benzamide] returned an Emax of 30 to 40%.

Still in this assay, the particulars now being: Homo sapiens, Hec50, 48 h.
Consider `[2H]C([2H])([2H])N(C(=O)c1ccc(C2=CCN([C@@H](C)c3cc4c(-c5ncc(N)cc5F)ccnc4n3C)CC2)cc1)C([2H])([2H])[2H]` [Example 1af51, (S)-4-(1-(1-(4-(5-Amino-3-fluoropyridin-2-yl)-1-methyl-1H-pyrrolo[2,3-b]pyridin-2-yl)ethyl)-1,2,3,6-tetrahydropyridin-4-yl)-N,N-bis(methyl-d3)benzamide], for which the EC50 worked out at 1670 nM.

`[2H]C([2H])([2H])N(C(=O)c1ccc(C2=CCN([C@@H](C)c3cc4c(-c5ncc(N)cc5C)ccnc4n3C)CC2)cc1)C([2H])([2H])[2H]` [Example 1af53, (S)-4-(1-(1-(4-(5-Amino-3-methylpyridin-2-yl)-1-methyl-1H-pyrrolo[2,3-b]pyridin-2-yl)ethyl)-1,2,3,6-tetrahydropyridin-4-yl)-N,N-bis(methyl-d3)benzamide] gave an EC50 of 765 nM.

`[2H]C([2H])([2H])N(C(=O)c1ccc(C2=CCN([C@@H](C)c3cc4c(-c5ccc(N)c(F)n5)ccnc4n3C)CC2)cc1)C([2H])([2H])[2H]` [Example 1af54, (S)-4-(1-(1-(4-(5-Amino-6-fluoropyridin-2-yl)-1-methyl-1H-pyrrolo[2,3-b]pyridin-2-yl)ethyl)-1,2,3,6-tetrahydropyridin-4-yl)-N,N-bis(methyl-d3)benzamide] showed a half-maximal effective concentration (EC50) of 534 nM.

Consider `[2H]C([2H])([2H])N(C(=O)c1ccc(C2=CCN([C@@H](C)c3cc4c(-c5cnc(N)cc5F)ccnc4n3C)CC2)cc1)C([2H])([2H])[2H]` [Example 1af55, (S)-4-(1-(1-(4-(6-Amino-4-fluoropyridin-3-yl)-1-methyl-1H-pyrrolo[2,3-b]pyridin-2-yl)ethyl)-1,2,3,6-tetrahydropyridin-4-yl)-N,N-bis(methyl-d3)benzamide], for which the EC50 was determined as 426 nM.

`[2H]C([2H])([2H])N(C(=O)c1ccc(C2=CCN([C@@H](C)c3cc4c(-c5cnc(N)c(F)c5)ccnc4n3C)CC2)cc1)C([2H])([2H])[2H]` [Example 1af56, (S)-4-(1-(1-(4-(6-Amino-5-fluoropyridin-3-yl)-1-methyl-1H-pyrrolo[2,3-b]pyridin-2-yl)ethyl)-1,2,3,6-tetrahydropyridin-4-yl)-N,N-bis(methyl-d3)benzamide] displayed an EC50 of 726 nM.

`[2H]C([2H])([2H])N(C(=O)c1ccc(C2=CCN([C@@H](C)c3cc4c(-c5ncc(N)cc5C(F)(F)F)ccnc4n3C)CC2)cc1)C([2H])([2H])[2H]` [Example 1af57, (S)-4-(1-(1-(4-(5-Amino-3-(trifluoromethyl)pyridin-2-yl)-1-methyl-1H-pyrrolo[2,3-b]pyridin-2-yl)ethyl)-1,2,3,6-tetrahydropyridin-4-yl)-N,N-bis(methyl-d3)benzamide] displayed an EC50 of 17900 nM.

Regarding `[2H]C([2H])([2H])N(C(=O)c1ccc(C2=CCN([C@@H](C)c3cc4c(-c5cnc(N)c(C)c5)ccnc4n3C)CC2)cc1)C([2H])([2H])[2H]` [Example 1af58, (S)-4-(1-(1-(4-(6-Amino-5-methylpyridin-3-yl)-1-methyl-1H-pyrrolo[2,3-b]pyridin-2-yl)ethyl)-1,2,3,6-tetrahydropyridin-4-yl)-N,N-bis(methyl-d3)benzamide], the 50% effective concentration (EC50) was determined as 638 nM.

Compound `[2H]C([2H])([2H])N(C(=O)c1ccc(C2=CCN([C@@H](C)c3cc4c(-c5ccc(N)nn5)ccnc4n3C)CC2)cc1)C([2H])([2H])[2H]` [Example 1af59, (S)-4-(1-(1-(4-(6-aminopyridazin-3-yl)-1-methyl-1H-pyrrolo[2,3-b]pyridin-2-yl)ethyl)-1,2,3,6-tetrahydropyridin-4-yl)-N,N-bis(methyl-d3)benzamide] returned an EC50 of 260 nM. This EC50 is about 2.5-fold lower than that of the compound before.

On to `[2H]C([2H])([2H])N(C(=O)c1ccc(C2=CCN([C@@H](C)c3cc4c(-c5ccc(NC)nn5)ccnc4n3C)CC2)cc1)C([2H])([2H])[2H]` [Example 1af60, (S)—N,N-bis(methyl-d3)-4-(1-(1-(1-methyl-4-(6-(methylamino)pyridazin-3-yl)-1H-pyrrolo[2,3-b]pyridin-2-yl)ethyl)-1,2,3,6-tetrahydropyridin-4-yl)benzamide], for which the midpoint of the response, the EC50, lay at 1290 nM.

The compound `[2H]C([2H])([2H])N(C(=O)c1ccc(C2CCN([C@@H](C)c3cc4c(-c5cnc(N)nn5)ccnc4n3C)CC2)cc1)C([2H])([2H])[2H]` [Example 1af64, (S)-4-(1-(1-(4-(3-amino-1,2,4-triazin-6-yl)-1-methyl-1H-pyrrolo[2,3-b]pyridin-2-yl)ethyl)piperidin-4-yl)-N,N-bis(methyl-d3)benzamide] displayed an EC50 of 3190 nM.

For the compound `[2H]C([2H])([2H])N(C(=O)c1ccc(C2CCN([C@@H](C)c3cc4c(-c5ccc(N)c(C)n5)ccnc4n3C)CC2)cc1)C([2H])([2H])[2H]` [Example 1af66, (S)-4-(1-(1-(4-(5-amino-6-methylpyridin-2-yl)-1-methyl-1H-pyrrolo[2,3-b]pyridin-2-yl)ethyl)piperidin-4-yl)-N,N-bis(methyl-d3)benzamide], the concentration giving a half-maximal response (EC50) amounted to 611 nM.

Turning to `[2H]C([2H])([2H])N(C(=O)c1ccc(C2CCN([C@@H](C)c3cc4c(-c5ccc(N)nc5OC)ccnc4n3C)CC2)cc1)C([2H])([2H])[2H]` [Example 1af67, (S)-4-(1-(1-(4-(6-amino-2-methoxypyridin-3-yl)-1-methyl-1H-pyrrolo[2,3-b]pyridin-2-yl)ethyl)piperidin-4-yl)-N,N-bis(methyl-d3)benzamide], the EC50 came out at 97 nM.

The compound `[2H]C([2H])([2H])N(C(=O)c1ccc(C2CCN([C@@H](C)c3cc4c(-c5ncc(N)cc5OC)ccnc4n3C)CC2)cc1)C([2H])([2H])[2H]` [Example 1af68, (S)-4-(1-(1-(4-(5-amino-3-methoxypyridin-2-yl)-1-methyl-1H-pyrrolo[2,3-b]pyridin-2-yl)ethyl)piperidin-4-yl)-N,N-bis(methyl-d3)benzamide] returned an EC50 of 1090 nM. Against the preceding compound, the EC50 is about 11-fold higher.

For `[2H]C([2H])([2H])N(C(=O)c1ccc(C2CCN([C@@H](C)c3cc4c(-c5ccc(NCCO)nc5)ccnc4n3C)CC2)cc1)C([2H])([2H])[2H]` [Example 1af69, (S)-4-(1-(1-(4-(6-((2-hydroxyethyl)amino)pyridin-3-yl)-1-methyl-1H-pyrrolo[2,3-b]pyridin-2-yl)ethyl)piperidin-4-yl)-N,N-bis(methyl-d3)benzamide], the half-maximal effective concentration (EC50) was determined as 262 nM.

In turn, `[2H]C([2H])([2H])N(C(=O)c1cnc(C2=CCN(Cc3cc4c(-c5ccc(N)nc5)ccnc4n3C)CC2)nc1)C([2H])([2H])[2H]` [Example 1af73, 2-(1-((4-(6-Aminopyridin-3-yl)-1-methyl-1H-pyrrolo[2,3-b]pyridin-2-yl)methyl)-1,2,3,6-tetrahydropyridin-4-yl)-N,N-bis(methyl-d3)pyrimidine-5-carboxamide] displayed an EC50 of 46.3 nM.

For `CN(C)C(=O)c1cc(F)c(C2=CCN(Cc3cc4c(-c5ccc(N)nn5)ccnc4n3C)CC2)c(Cl)c1` [Example 1af75, 4-(1-((4-(6-Aminopyridazin-3-yl)-1-methyl-1H-pyrrolo[2,3-b]pyridin-2-yl)methyl)-1,2,3,6-tetrahydropyridin-4-yl)-3-chloro-5-fluoro-N,N-dimethylbenzamide], the EC50 was found to be 159 nM.
